# Measurements published in patent US9732119B2, “Immunomodulators” (BRISTOL-MYERS SQUIBB COMPANY, priority 2014, dated 2017).
# Target: T1, PD-1-Ig binding to PD-L1-TVMV-His (PD-L1-His) (Homo sapiens, UniProt Q9NZQ7)
# T1 construct: hPDL1(19-239)-TVMV-His; made in house; host or cells: HEK293T cells
# Assay: PD-1/PD-L1 Homogenous Time-Resolved Fluorescence (HTRF) binding assay
# Settings: PD-1-Ig (20 nM) / PD-L1-His (10 nM); numeric values
# In short: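 HTRF competition: compound pre-incubated 15 min with PD-L1-His (10 nM final), then PD-1-Ig (20 nM final) added for 15 min in dPBS, 0.1% BSA, 0.05% Tween-20. Detection with Eu-cryptate anti-Ig (1 nM) and APC anti-His (20 nM) antibodies.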
# T1 sequence (Q9NZQ7 with tags, fused parts or gaps): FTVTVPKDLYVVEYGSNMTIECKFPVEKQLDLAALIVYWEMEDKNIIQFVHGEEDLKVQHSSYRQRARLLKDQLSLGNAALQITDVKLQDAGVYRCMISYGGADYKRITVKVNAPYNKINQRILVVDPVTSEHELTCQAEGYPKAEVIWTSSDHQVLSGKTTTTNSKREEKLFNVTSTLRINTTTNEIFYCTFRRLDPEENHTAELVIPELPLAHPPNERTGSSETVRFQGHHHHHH
row,IC50 [nM],Compound
1,6.95,CCCC[C@H]1C(=O)N(C)[C@@H](CCCC)C(=O)N[C@@H](CC(C)C)C(=O)N[C@H](C(=O)NCC(N)=O)CCNCC(=O)N[C@@H](Cc2ccc(O)cc2)C(=O)N(C)[C@@H](C)C(=O)N[C@@H](CC(N)=O)C(=O)N2CCC[C@H]2C(=O)N[C@@H](Cc2cnc[nH]2)C(=O)N[C@@H](CC(C)C)C(=O)N2C[C@H](O)C[C@H]2C(=O)N[C@@H](Cc2c[nH]c3ccccc23)C(=O)NCC(=O)N[C@@H](Cc2c[nH]c3ccccc23)C(=O)N1C [Example 10027]

# Same assay, conditions: PD-1-Ig (20 nM) / PD-L1-His (10 nM); range classes
row,Compound,IC50 [nM]
1,CCCC[C@H]1C(=O)N(C)[C@@H](CCCC)C(=O)N[C@@H](C)C(=O)N[C@H](C(=O)NCC(N)=O)CCNCC(=O)N[C@@H](Cc2ccc(O)cc2)C(=O)N(C)[C@@H](C)C(=O)N[C@@H](CC(=O)O)C(=O)N2CCC[C@H]2C(=O)N[C@@H](Cc2cnc[nH]2)C(=O)N[C@@H](CCC(N)=O)C(=O)N2C[C@H](O)C[C@H]2C(=O)N[C@@H](Cc2c[nH]c3ccccc23)C(=O)N[C@@H](CO)C(=O)N[C@@H](Cc2cn(CC(=O)O)c3ccccc23)C(=O)N1C [Example 10015],1 to 9.9
2,CCCC[C@H]1C(=O)N(C)[C@@H](CCCC)C(=O)N[C@@H](C)C(=O)N[C@H](C(=O)NCC(N)=O)CCCNCC(=O)N[C@@H](Cc2ccc(O)cc2)C(=O)N(C)[C@@H](C)C(=O)N[C@@H](CC(=O)O)C(=O)N2CCC[C@H]2C(=O)N[C@@H](Cc2cnc[nH]2)C(=O)N[C@@H](CCC(N)=O)C(=O)N2C[C@H](O)C[C@H]2C(=O)N[C@@H](Cc2c[nH]c3ccccc23)C(=O)N[C@@H](CO)C(=O)N[C@@H](Cc2cn(CC(=O)O)c3ccccc23)C(=O)N1C [Example 10016],1 to 9.9
3,CCCC[C@H]1C(=O)N(C)[C@@H](CCCC)C(=O)N[C@@H](CC(C)C)C(=O)N[C@H](C(=O)NCC(N)=O)CCNCC(=O)N[C@@H](Cc2ccc(O)cc2)C(=O)N(C)[C@@H](C)C(=O)N[C@@H](CC(N)=O)C(=O)N2CCC[C@H]2C(=O)N[C@@H](Cc2cnc[nH]2)C(=O)N[C@@H](CCC(N)=O)C(=O)N2C[C@H](O)C[C@H]2C(=O)N[C@@H](Cc2c[nH]c3ccccc23)C(=O)NCC(=O)N[C@@H](Cc2cn(CC(=O)O)c3ccccc23)C(=O)N1C [Example 10021],10 to 99
4,CCCC[C@H]1C(=O)N(C)[C@@H](CCCC)C(=O)N[C@@H](CC(C)C)C(=O)N[C@H](C(=O)NCC(N)=O)CCCNCC(=O)N[C@@H](Cc2ccc(O)cc2)C(=O)N(C)[C@@H](C)C(=O)N[C@@H](CC(N)=O)C(=O)N2CCC[C@H]2C(=O)N[C@@H](Cc2cnc[nH]2)C(=O)N[C@@H](CCC(N)=O)C(=O)N2C[C@H](O)C[C@H]2C(=O)N[C@@H](Cc2c[nH]c3ccccc23)C(=O)NCC(=O)N[C@@H](Cc2cn(CC(=O)O)c3ccccc23)C(=O)N1C [Example 10022],10 to 99
5,CCCC[C@H]1C(=O)N(C)[C@@H](CCCC)C(=O)N[C@@H](CCC(=O)O)C(=O)N[C@H](C(=O)NCC(N)=O)CCNCC(=O)N[C@@H](Cc2ccc(O)cc2)C(=O)N(C)[C@@H](C)C(=O)N[C@@H](CC(=O)O)C(=O)N2CCC[C@H]2C(=O)N[C@@H](Cc2cnc[nH]2)C(=O)N[C@@H](CCC(N)=O)C(=O)N2C[C@H](O)C[C@H]2C(=O)N[C@@H](Cc2c[nH]c3ccccc23)C(=O)N[C@@H](CO)C(=O)N[C@@H](Cc2c[nH]c3ccccc23)C(=O)N1C [Example 10023],100 to 10000
6,CCCC[C@H]1C(=O)N(C)[C@@H](CCCC)C(=O)N[C@@H](CO)C(=O)N[C@H](C(=O)NCC(N)=O)CNCC(=O)N[C@@H](Cc2ccc(O)cc2)C(=O)N(C)[C@@H](C)C(=O)N[C@@H](CC(N)=O)C(=O)N2CCC[C@H]2C(=O)N[C@@H](Cc2cnc[nH]2)C(=O)N[C@@H](CCC(N)=O)C(=O)N2C[C@H](O)C[C@H]2C(=O)N[C@@H](Cc2c[nH]c3ccccc23)C(=O)N[C@@H](CO)C(=O)N[C@@H](Cc2c[nH]c3ccccc23)C(=O)N1C [Example 10024],10 to 99
7,CCCC[C@H]1C(=O)N(C)[C@@H](CCCC)C(=O)N[C@@H](CO)C(=O)N[C@H](C(=O)NCC(N)=O)CCCNCC(=O)N[C@@H](Cc2ccc(O)cc2)C(=O)N(C)[C@@H](C)C(=O)N[C@@H](CC(N)=O)C(=O)N2CCC[C@H]2C(=O)N[C@@H](Cc2cnc[nH]2)C(=O)N[C@@H](CCC(N)=O)C(=O)N2C[C@H](O)C[C@H]2C(=O)N[C@@H](Cc2c[nH]c3ccccc23)C(=O)N[C@@H](CO)C(=O)N[C@@H](Cc2c[nH]c3ccccc23)C(=O)N1C [Example 10025],100 to 10000

# The next lines start with the values.
row,IC50 [nM],Compound
1,1 to 9.9,CCCC[C@H]1C(=O)N(C)[C@@H](CCCC)C(=O)N[C@@H](CC(C)C)C(=O)N[C@H](C(=O)NCC(N)=O)CNCC(=O)N[C@@H](Cc2ccc(O)cc2)C(=O)N(C)[C@@H](C)C(=O)N[C@@H](CC(N)=O)C(=O)N2CCC[C@H]2C(=O)N[C@@H](Cc2cnc[nH]2)C(=O)N[C@@H](CCC(N)=O)C(=O)N2C[C@H](O)C[C@H]2C(=O)N[C@@H](Cc2c[nH]c3ccccc23)C(=O)NCC(=O)N[C@@H](Cc2c[nH]c3ccccc23)C(=O)N1C [Example 10017]
2,10 to 99,CCCC[C@H]1C(=O)N(C)[C@@H](CCCC)C(=O)N[C@@H](CC(C)C)C(=O)N[C@H](C(=O)NCC(N)=O)CCNCC(=O)N[C@@H](Cc2ccc(O)cc2)C(=O)N(C)[C@@H](C)C(=O)N[C@@H](CC(N)=O)C(=O)N2CCC[C@H]2C(=O)N[C@@H](Cc2cnc[nH]2)C(=O)N[C@@H](CCC(N)=O)C(=O)N2C[C@H](O)C[C@H]2C(=O)N[C@@H](Cc2c[nH]c3ccccc23)C(=O)NCC(=O)N[C@@H](Cc2c[nH]c3ccccc23)C(=O)N1C [Example 10018]
3,100 to 10000,CCCC[C@H]1C(=O)N(C)[C@@H](CCCC)C(=O)N[C@@H](CC(C)C)C(=O)N[C@H](C(=O)NCC(N)=O)CCCNCC(=O)N[C@@H](Cc2ccc(O)cc2)C(=O)N(C)[C@@H](C)C(=O)N[C@@H](CC(N)=O)C(=O)N2CCC[C@H]2C(=O)N[C@@H](Cc2cnc[nH]2)C(=O)N[C@@H](CCC(N)=O)C(=O)N2C[C@H](O)C[C@H]2C(=O)N[C@@H](Cc2c[nH]c3ccccc23)C(=O)NCC(=O)N[C@@H](Cc2c[nH]c3ccccc23)C(=O)N1C [Example 10019]
4,10 to 99,CCCC[C@H]1C(=O)N(C)[C@@H](CCCC)C(=O)N[C@@H](CC(C)C)C(=O)N[C@H](C(=O)NCC(N)=O)CNCC(=O)N[C@@H](Cc2ccc(O)cc2)C(=O)N(C)[C@@H](C)C(=O)N[C@@H](CC(N)=O)C(=O)N2CCC[C@H]2C(=O)N[C@@H](Cc2cnc[nH]2)C(=O)N[C@@H](CCC(N)=O)C(=O)N2C[C@H](O)C[C@H]2C(=O)N[C@@H](Cc2c[nH]c3ccccc23)C(=O)NCC(=O)N[C@@H](Cc2cn(CC(=O)O)c3ccccc23)C(=O)N1C [Example 10020]
5,10 to 99,CCCC[C@H]1C(=O)N(C)[C@@H](CCCC)C(=O)N[C@@H](CC(C)C)C(=O)N[C@H](C(=O)NCC(N)=O)CNCC(=O)N[C@@H](Cc2ccc(O)cc2)C(=O)N(C)[C@@H](C)C(=O)N[C@@H](CC(N)=O)C(=O)N2CCC[C@H]2C(=O)N[C@@H](Cc2cnc[nH]2)C(=O)N[C@@H](CC(C)C)C(=O)N2C[C@H](O)C[C@H]2C(=O)N[C@@H](Cc2c[nH]c3ccccc23)C(=O)NCC(=O)N[C@@H](Cc2c[nH]c3ccccc23)C(=O)N1C [Example 10026]
6,100 to 10000,CCCC[C@H]1C(=O)N(C)[C@@H](CCCC)C(=O)N[C@@H](CC(C)C)C(=O)N[C@H](C(=O)NCC(N)=O)CCCNCC(=O)N[C@@H](Cc2ccc(O)cc2)C(=O)N(C)[C@@H](C)C(=O)N[C@@H](CC(N)=O)C(=O)N2CCC[C@H]2C(=O)N[C@@H](Cc2cnc[nH]2)C(=O)N[C@@H](CC(C)C)C(=O)N2C[C@H](O)C[C@H]2C(=O)N[C@@H](Cc2c[nH]c3ccccc23)C(=O)NCC(=O)N[C@@H](Cc2c[nH]c3ccccc23)C(=O)N1C [Example 10028]
